# Where two headings read alike, the source gives them in different places.
# Key:
# IFN-γ = experiment: Cytokine release assay in hPBMCs: IFN-γ; format: cell-based; settings: Homo sapiens
# Experimental: hPBMCs were obtained from healthy donors by centrifugation of heparinized venous blood over Ficoll/Hypaque solution (Histopaque-1077, Sigma, USA). Isolated hPBMCs were suspended in RPMI 1640 culture medium supplemented with 10% FBS and seeded at a density of 50,000 cells/well in a 96-well plate (Nunc, USA). The cells were incubated at 37° C., 5% CO2 for a period of 24 h. These cells were used for the lymphocyte proliferation as well as cytokine release assay.
# The plated cells were treated with different concentrations of the test compound (prepared as mM stock in DMSO and diluted with DMSO to achieve the following final concentrations in the assay: 100, 10, 1, 0.1, 0.01, 0.001, 0.0001, 0.00001 and 0.000001 μM) and incubated for 30 min. The cells were then stimulated with PHA (prepared as 1 mg/mL stock in RPMI 1640 culture medium and used at a final concentration of 5 μg/mL). FK506 was used as a standard. The plates were incubated at 37° C., 5% CO2 for 48 h. The cytokines in the supernatant collected were detected using ELISA kit (BD biosciences, USA). The cytokines evaluated in the assay were TNF-α, IL-2, IL-6, and IFN-γ.
# [1] = test system: DBA/1J mice with collagen induced arthritis; experiment: Collagen-induced arthritis in mice; format: in vivo
# Experimental: The experiment was designed as in reference, J. Experimental Medicine, 162, 637-646 (1985), the disclosure of which is incorporated by reference for the teaching of the experiment.
# Male DBA/1J mice with body weight range of 18-22 g, aged 8-10 weeks were immunized with an emulsion equivalent to 200 μg of type II collagen (Elastin products, USA) in Freund's Complete Adjuvant (Sigma, USA), injected intradermally at the base of the tail. The animals were boosted with 200 μg of freshly prepared typeII collagen emulsion emulsified in Freund's Complete Adjuant (Sigma, USA) on day 21. A group of naïve mice was also maintained alongside. Naïve animals are the animals which are neither immunized for induction of arthritis nor do they receive any treatment. This group is maintained to take care of the normal changes in the paw thickness with age.
# From day 23, mice were examined daily once for the signs of rheumatoid arthritis, using the articular index and paw thickness as parameters. Articular index scoring was performed employing the following criteria:
# • 0: No redness or swelling • 1: Redness, but no swelling • 2: Redness and swelling of the paw • 3: Redness and severe swelling of the paw Hind limbs: Scale 0-4 • 0: No redness or swelling • 1: Redness and mild swelling of paw • 2: Redness and moderate swelling of paw and/or swelling of at least one of the digits • 3: Redness and moderate/severe swelling of paw, swelling of ankle joint and/or swelling of one or more digits • 4: Redness and severe swelling of paw, digits and ankle joint, with joint stiffness Mice with a minimum hind paw score of 2, of even one paw, were inducted into the study. Mice were randomized into the various study groups, each group having at least eight animals, and were administered the vehicle (0.5% CMC, 10 mL/kg p.o. and s.c. twice daily), the test compound (5 mg/kg, p.o. and s.c., twice daily) and standard compound Enbrel (Wyeth Limited, UK), 3 mg/kg, s.c., once daily. The test compound was administered as a suspension in CMC. The requisite quantity of the compound was accurately weighed and was hand-pulverized using pestle-mortar. After mixing with minimum quantity of Tween 80 necessary to wet the compound, requisite quantity of 0.5% CMC solution was added and the compound was ground with CMC till the uniform suspension was obtained. Standard compound ‘Enbrel’ was used as an aqueous solution. The dosing of the compounds was done for 12 continuous days.
# The following parameters were observed and recorded daily, • 1. Body weight • 2. Articular index • 3. Paw thickness of hind limbs only, in mm using a tension free calipers • 4. Any significant observation regarding the condition of the animals.
# On 13th day morning, 1 h after the compound treatment, the animals were sacrificed, blood withdrawn, and plasma collected for drug level analyses. Also, the hind limbs of all the animals were preserved for histopathological evaluations.
smiles,measurement,setting,value
"C/C=C/C(O)C(C)/C=C/C(=N\O)C(C)C(O)C(C)C1OC(=O)/C(OC)=C/C(C)=C/C(C)C(O)C(CC)C(O)C(C)C/C(C)=C/C=C/C1OC (stereo not drawn) [Compound of example 7, (3Z,5E,13E,15E)-18-((5Z,6E,10E)-3,9-Dihydroxy-5-(hydroxymino)-4,8-dimethyldodeca-6,10-dien-2-yl)-9-ethyl-8,10-dihydroxy-3,17-dimethoxy-5,7,11,13-tetramethyl oxacyclooctadeca-3,5,13,15-tetraen-2-one]",IC50,"IFN-γ; Table 3: PHA-PMA induced hPBMC's, 48 h, read-out: IFN-γ IC50",0.02 µM
same,IC50,"IFN-γ; Table 4: mitogen stimulated production from hPBMC's, read-out: IFN-γ (IC50 μM)",0.1 µM
same,severity of arthritis,"[1]; 5.0 mg/kg CMC suspension, subcutaneously twice daily, 12 days",reduced the severity of arthritis
same,benefit compared with Enbrel,"[1]; 5.0 mg/kg s.c. twice daily vs Enbrel 3 mg/kg, s.c., once daily",equal to that achieved with Enbrel treatment
same,arthritic changes of joints (histopathology observations),"[1]; 5 mg/kg, s.c.",showed protection against arthritic changes with absence of hyperplasia of synovium
same,Histological score of the section of paws,"[1]; compound of example 7 5 mg/kg, s.c., n=10, Enbrel 3 mg/kg, s.c., n=6, vehicle control 15.14+1.0",3.6+1.54

# From patent US20120225889A1, “USE OF MACROCYCLIC LACTONE DERIVATIVES FOR THE TREATMENT OF INFLAMMATORY DISORDERS” (PIRAMAL LIFE SCIENCES LIMITED, priority 2010, published 2012)
